Legend:
[1] = target: T1, WW domains of YAP (WW-YAP) (Homo sapiens, UniProt P46937); assay: Static binding assay on peptide-Toyopearl resin, Langmuir isotherm, WW-YAP; conditions: binding capacity (mg protein/mL resin), PBS pH 7.4, 1 h room temperature, Langmuir fit, average of three independent replicates ± one standard error
T1 construct: which affords the expression of the WW domains of YAP (AAs 165–271); made in house; host or cells: Rosetta E. coli
Protocol: (§1) The known WW-binding peptide sequence [sequence] […] Protein adsorption isotherms were generated by incubating the peptide-functionalized resin with soluble N-terminal YAP or WW-YAP (20 μg/mL–3 mg/mL).
(§2) The supernatants were collected and analyzed by UV spectrophotometry at 280 nm to measure the amount of unbound protein. The amount of protein adsorbed on the resin was determined via mass balance. The KD describing the binding affinity of the soluble protein to the peptide-functionalized resin was determined by fitting the adsorption data to a Langmuir isotherm:(2) q=qmax[C]/KD+[C] where q is the amount of protein adsorbed on the resin (mg protein/mL resin), [C] is the unbound concentration of protein at equilibrium (mg protein/mL solution), qmax is the maximum protein binding capacity (mg protein/mL resin), and KD is the dissociation constant (mg protein/mL solution). Equation (2) was independently fit to the data obtained from triplicate adsorption studies, and the fitted values of KD and qmax were averaged across the repeats.

N-terminal YAP (N-YAP) = target: T2, N-terminal YAP (N-YAP) (Homo sapiens, UniProt P46937); assay: Static binding assay on peptide-Toyopearl resin, Langmuir isotherm, N-terminal YAP; conditions: binding capacity (mg protein/mL resin), PBS pH 7.4, 1 h room temperature, Langmuir fit, average of three independent replicates ± one standard error
T2 construct: which affords the expression of N-terminal YAP (AAs 1–291); made in house; host or cells: Rosetta E. coli
T2 sequence (P46937 1-291): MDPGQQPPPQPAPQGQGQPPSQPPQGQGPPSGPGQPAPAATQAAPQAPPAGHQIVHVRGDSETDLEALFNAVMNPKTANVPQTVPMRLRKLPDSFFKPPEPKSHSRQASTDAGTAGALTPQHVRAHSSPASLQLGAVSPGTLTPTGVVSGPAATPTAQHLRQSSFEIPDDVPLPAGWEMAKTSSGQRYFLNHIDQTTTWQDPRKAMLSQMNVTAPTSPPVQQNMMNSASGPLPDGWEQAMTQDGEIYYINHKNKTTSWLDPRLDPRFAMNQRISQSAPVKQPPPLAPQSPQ
Protocol: as §1, §2

T1 sequence (P46937 165-271): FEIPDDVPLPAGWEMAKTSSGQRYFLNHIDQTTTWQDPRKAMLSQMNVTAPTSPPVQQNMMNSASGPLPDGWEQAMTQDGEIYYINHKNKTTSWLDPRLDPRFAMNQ

- Qmax WW-YAP (resin) [1]: 8.3 ± 0.27 mg/mL
- Qmax N-YAP (resin) (N-terminal YAP (N-YAP)): 4.11 ± 0.12 mg/mL
Sequence: RYSPPPPYSSHS [PTCH peptide]
